Experimental data from patent US20140332384A1, “BIOMARKERS RELATED WITH A SUPRA-N[…] STATE OF SELENIUM AND DIAGNOSIS METHOD IN WHICH SAID […] IDENTIFIED” (UNIVERSIDAD DE SANTIAGO DE CHILE, priority 2011, published 2014).
“And” between values parts separate entries of the source, which are not always exact repeats. Equal entries are not always repeated.

Legend:
[1] = tested on: blood plasma proteins of basic isoelectric point (bands R-2 to R-15); assay: Protein pattern of blood plasma proteins of basic isoelectric point (SDS-PAGE, densitometry) in rats fed supplemented diets; assay type: in vivo, Wistar rats
Description: The plasma was separated from the solids.
For the preparation of the pattern used, individual plasma samples were analyzed by SDS electrophoresis in polyacrylamide gel according to standard protocols. Prior to electrophoretic analysis, plasma samples were fractioned by “batch” adsorption using an ion exchange resin at pH 7.5. The adsorbed fraction was recovered and analyzed by SDS polyacrylamide gel.
A calibration curve was prepared loading five solutions of different concentrations (0, 0.4, 0.6, 0.8, and 1 mg/ml) [XAOG1]·[A2] of bovine serum albumin (as protein standard) in a polyacrylamide gel, and performing SDS-PAGE analysis under the same conditions and with the same protocol as used to analyse the plasma samples. In each lane a single major band was detected, and between the each lane different band intensity was observed due to the different concentration of the protein loaded (FIGS. 2-5). The optical density of each band was determined, as the protein concentration was known in each solution loaded in the different lanes, a linear equation was drawn which correlates the concentration with the intensity of the bands.
The concentration of protein was quantified in each band via optical densitometry and subsequent interpolation in the calibration curve. The concentration average and standard deviation for each band was calculated, considering the 8 samples of each group (controls and experimental). A comparison was made using the Student statistical t-test with a confidence interval 95% to detect significant differences in each band between the experimental and control groups.
The reference pattern for protein corresponds to the set of plasma proteins of basic isoelectric point obtained and separated by the following methodology.
Stage A: Chromatographic Fractionation of Plasma Proteins Basic Isoelectric Point.
1. Resuspend the cationic exchange resin, carefully turning the package containing the resin. When total homogenization is achieved, a certain volume of suspension is taken, between 50 and 500 μL, preferably between 50 and 200 μL, more preferably 100 μL.
2. Mix in a microcentrifuge tube around 50 to 500 μL, preferably between 50 and 200 μL, more preferably 100 μL of plasma with a 1:9 proportional amount of buffer pH 7.5, until a ionic strength equal to 0.1M, is attained, this is if you take 100 μL of plasma, 900 μL buffer must be added to achieve a 1:10 dilution, and obtain a plasma protein solution with an ionic strength equivalent to 0.09 to 0.1M of NaCl.
3. To prepare the cationic exchange resin, it is necessary to decant the resin from the original suspension volume, discarding the supernatant and washing the resin by adding an amount equivalent to the discarded supernatant buffer pH 7.5 plus 0.1M NaCl, repeating the procedure 3 times.
The protein sample obtained from stage 2 is added and mixed gently homogenizing it for 30 minutes and the resin is separated from the supernatant, the supernatant is discarded and the resin is washed with the same volume of pH 7.5 buffer plus 0.1M NaCl, three times. The adsorbed proteins are eluted by adding a suitable volume, preferably between 40 and 80 μL, more preferably 50 µL of pH 7.5 buffer over 1M NaCl, homogenized, the resin is separated from the supernatant, and finally supernatant is recuperated, which corresponds to the fraction of plasma proteins with a basic isoelectric point.
Stage B: Electrophoretic separation of plasma proteins of a basic isoelectric point.
A 12% polyacrylamide gel is prepared, according to standard protocols. A 20 μl of the sample obtained in item 3 and 5 μL of loading buffer (standard composition for SDS analysis) is subject to denaturation by heat. The denatured mixture is loaded into a lane and the electrophoretic run is performed, for a total of 160 Vh. The electrophoresis system is disassembled and the gel is recovered. […]

[2] = tested on: blood plasma proteins of basic isoelectric point (bands R-2 to R-15); assay: Protein pattern of blood plasma of an individual treated with dietary supplement seleno methylselenocysteine (Example 2); assay type: in vivo
From the text: The samples must pass through the stages A and B as described in the preparation of the pattern.
Step C: Comparing the protein pattern of the reference.
It compares the SDS-PAGE gel of the sample collected and treated with the protein pattern characteristic of a supranutritional intake of a trace element, in this case, the organic form of selenium as provided in seleno-methyl-selenocysteine, and evaluating the presence of the same bands and its relative abundance in each of the bands.
A statistical analysis (t-Student with an interval of 95%) is performed to detect significant differences between the relative abundance of the corresponding protein bands between the sample and pattern.
A sample of plasma from an individual who has undergone treatment with a nutritional dietary supplement seleno methylselenocysteine. This plasma sample was subject to the methodology described above, and the following were the results.
For comparison, Student's t-test with a confidence interval of 95% confidence was used. […] The interpretation of the results, based on the methodology would be as follows.

[3] = Growth of rats based on their body weight; details: 10 weeks; for Final body weight: in g (unit assumed)
Description: As illustrated in the various embodiments and examples provided herein, the protein pattern was obtained using blood plasma from Wistar rats, bred in three groups of 8 rats, 21 days of age (4 females and 4 males) each. […] The animals had free access to deionized water and received the respective diet ad libitum. […]
The animals were kept in stainless steel cages at a controlled temperature equal to 20° C., using 12 hours day/night cycles. After the experimental period (10 weeks), blood samples were collected from each animal by cardiac punction, using standard protocols in heparin tubes. The tubes were inverted 10 times, and immediately placed in an ice bath. The tubes were centrifuged at 1300 RCF at 4° C. during 10 minutes. The plasma was separated from the solids. The supernatant was transferred to a fresh centrifuge tube and was centrifuged at 2400 RCF at 4° C. for 15 minutes. Finally, plasma samples were stored at −80° C. until they were analysed.
The growth of rats for each group was controlled.

[4] = cited from earlier work
[5] = rat blood plasma, basic isoelectric point fraction, diet with 1.9 μg SMSeC per gram, 10 weeks, average ± standard deviation, [UA] in Tables 4, 5
[6] = rats fed 1.9 μg seleno-methyl-selenocysteine per g of diet, Student t-test, confidence interval 95%
[7] = SMSeC (1.9 μg) diet, females, average
[8] = SMSeC (1.9 μg) diet, females, individual rats
[9] = SMSeC (1.9 μg) diet, group average
[10] = SMSeC (1.9 μg) diet, males, average
[11] = SMSeC (1.9 μg) diet, males, individual rats
[12] = Sodium Selenate (1.5 μg) diet, females, average
[13] = Sodium Selenate (1.5 μg) diet, females, individual rats
[14] = Sodium Selenate (1.5 μg) diet, group average
[15] = Sodium Selenate (1.5 μg) diet, males, average
[16] = Sodium Selenate (1.5 μg) diet, males, individual rats
[17] = Sodium Selenate (1.9 μg) diet, females, average
[18] = Sodium Selenate (1.9 μg) diet, females, individual rats
[19] = Sodium Selenate (1.9 μg) diet, group average
[20] = Sodium Selenate (1.9 μg) diet, males, average
[21] = Sodium Selenate (1.9 μg) diet, males, individual rats

C[Se]C[C@H](N)C(=O)O [SMSeC, seleno-methyl-selenocysteine]
Relative abundance of band R-2 (H inhibitory factor complement) of the pattern [1, 5]: 28498 ± 3911.5 arbitrary units
Relative abundance of band R-3 (H inhibitory factor complement) of the pattern [1, 5]: 20594.0 ± 4569.2 arbitrary units
Relative abundance of band R-4 (CRA f isophorm plasminogen) of the pattern [1, 5]: 21804.3 ± 4211.0 arbitrary units
Relative abundance of band R-5 (LOC366747 Protein) of the pattern [1, 5]: 24582.7 ± 3620.9 arbitrary units
Relative abundance of band R-6 (4a component complement) of the pattern [1, 5]: 29751.3 ± 2974.0 arbitrary units
Relative abundance of band R-7 (Albumina) of the pattern [1, 5]: 37380.8 ± 2955.7 arbitrary units
Relative abundance of band R-8 (Da 1-24) of the pattern [1, 5]: 27224.3 ± 6466.9 arbitrary units
Relative abundance of band R-9 (2C chainCregion Ig Gamma) of the pattern [1, 5]: 40411.3 ± 5952.4 arbitrary units
Relative abundance of band R-10 (Precursor β-2-glicoprotein 1) of the pattern [1, 5]: 14366.6 ± 3087.2 arbitrary units
Relative abundance of band R-11 (2A Region C Ig Gamma chain) of the pattern [1, 5]: 14644.4 ± 1750.0 arbitrary units and 14064.4 ± 1750.0 arbitrary units
Relative abundance of band R-12 (4a component complement) of the pattern [1, 5]: 51973.0 ± 4308.2 arbitrary units
Relative abundance of band R-13 (Heavy chain H4 inter α inhibitor) of the pattern [1, 5]: 13414.1 ± 5568.9 arbitrary units
Relative abundance of band R-14 (Ig Kappa precursor) of the pattern [1, 5]: 40436.1 ± 2906.9 arbitrary units
Relative abundance of band R-15 (H apolipoprotein) of the pattern [1, 5]: 11309.5 ± 6939.5 arbitrary units
Concentration of protein in band R-10 compared with basal diet plus 0.15 μg sodium selenate per gram of diet [1, 6]: significantly higher
Concentration of protein in band R-11 compared with basal diet plus 0.15 μg sodium selenate per gram of diet [1, 6]: significantly higher
Concentration of protein in band R-12 compared with basal diet plus 0.15 μg sodium selenate per gram of diet [1, 6]: significantly higher
Concentration of protein in band R-13 compared with basal diet plus 0.15 μg sodium selenate per gram of diet [1, 6]: significantly higher
Concentration of protein in band R-15 compared with basal diet plus 0.15 μg sodium selenate per gram of diet [1, 6]: significantly higher
Concentration of protein in band R-3 compared with both control groups ([1]; rats fed 1.9 μg seleno-methyl-selenocysteine per gram of diet, Student t-test, confidence interval 95%): significantly higher
Relative abundance [UA] of the individual, band R-2 [2]: 29498.0 ± 3911.5 UA
Relative abundance [UA] of the individual, band R-3 [2]: 22594.0 ± 4569.2 UA
Relative abundance [UA] of the individual, band R-4 [2]: 21994.3 ± 4211.0 UA
Relative abundance [UA] of the individual, band R-5 [2]: 25682.7 ± 3620.9 UA
Relative abundance [UA] of the individual, band R-6 [2]: 30751.3 ± 2974.0 UA
Relative abundance [UA] of the individual, band R-7 [2]: 37560.8 ± 2955.7 UA
Relative abundance [UA] of the individual, band R-8 [2]: 28124.3 ± 6466.9 UA
Relative abundance [UA] of the individual, band R-9 [2]: 41211.3 ± 5952.4 UA
Relative abundance [UA] of the individual, band R-10 [2]: 14666.6 ± 3087.2 UA
Relative abundance [UA] of the individual, band R-11 [2]: 13964.4 ± 1750.0 UA
Relative abundance [UA] of the individual, band R-12 [2]: 52073.0 ± 4308.2 UA
Relative abundance [UA] of the individual, band R-13 [2]: 15414.1 ± 5568.9 UA
Relative abundance [UA] of the individual, band R-14 [2]: 41436.1 ± 2906.9 UA
Relative abundance [UA] of the individual, band R-15 [2]: 12009.5 ± 6939.5 UA
Delta body weight [3, 7]: 168.3
Final body weight [3, 7]: 216.7
Delta body weight [3, 8]: 161.1 and 160.2 and 172.4 and 179.3
Final body weight [3, 8]: 208.6 and 210.3 and 222.2 and 225.5
Delta body weight [3, 9]: 211.5
Final body weight [3, 9]: 260.4
Delta body weight [3, 10]: 254.7
Final body weight [3, 10]: 304
Delta body weight [3, 11]: 245.1 and 256.8 and 275.8 and 241.0
Final body weight [3, 11]: 296.5 and 308.7 and 322.6 and 287.9

O=[Se](=O)(O)O [Sodium Selenate, sodium selenate]
Delta body weight [3, 12]: 151.1
Final body weight [3, 12]: 199.5
Delta body weight [3, 13]: 141.6 and 135.5 and 139.3 and 187.8
Final body weight [3, 13]: 189.8 and 184.2 and 188.3 and 235.7
Delta body weight [3, 14]: 207.8
Final body weight [3, 14]: 256.7
Delta body weight [3, 15]: 264.6
Final body weight [3, 15]: 313.8
Delta body weight [3, 16]: 266.6 and 275.8 and 271.2 and 244.9
Final body weight [3, 16]: 316.8 and 326.3 and 318.5 and 293.5
Delta body weight [3, 17]: 161.2
Final body weight [3, 17]: 209.7
Delta body weight [3, 18]: 180.4 and 161.3 and 145.1 and 158.1
Final body weight [3, 18]: 228.6 and 210 and 194.1 and 206
Delta body weight [3, 19]: 218.0
Final body weight [3, 19]: 266.9
Delta body weight [3, 20]: 274.8
Final body weight [3, 20]: 324
Delta body weight [3, 21]: 293.1 and 278.3 and 291.9 and 235.9
Final body weight [3, 21]: 343.3 and 328.8 and 339.2 and 284.5

[Se] [selenium]
Maximum Tolerable Intake ([4]; adult women and adult men): 400 µg/day
Selenium content of a food diet that could produce toxic effects ([4]; estimated, per kg of food diet): more than 1 mg per kg
